A short description of data set [1]: Fever response in rabbits (pyrogenicity). The class given is in vivo. Conditions: for PYROGENICITY Total Rise ° C., 3 rabbits: 10 ug/kg, cumulative rise ≥1.5 degree in three rabbits is considered pyrogenic; for PY[…]: rabbits. On the procedure:
The AGP compounds were also evaluated for their tendency to induce a fever response in rabbits. Each compound was formulated in 10% (v/v) ethanol/water solution at 100 mg/ml, then diluted with D5W to the desired concentration. The material was injected at 3 ml/kg body weight into 3 rabbits. The rise in core temperature of the rabbits was recorded.

Data set [2] concerns E.G7 (OVA) cells. Conditions: s.c. 25 μg OVA in AGP preparation, spleen cells 21 days later.
In data set [3] the test system is ovalbumin. The experiment in a line: Stimulation of antiovalbumin antibody production. The class given is in vivo, BDF1 female mice. Conditions: 50 μg AGP + 50 μg ovalbumin; second immunization day 21; bled 14 days after second injection. On the procedure: BDF1 female mice (8 per group) were immunized with 0.2 ml of emulsions containing 50 μg of the AGPs +50 μg of ovalbumin. A second immunization was administered 21 days post primary. Each mouse was bled 14 days after the second injection.

Data set [4] has as its system influenza A/HK/68. The class given is in vivo, BALB/c mice.
For data set [5], the system named is influenza A/HK/68. On the set-up: species or system ICR mice. To be noted: mouse, in vivo.
Data set [6] has as its system influenza A/HK/68. The class given is in vivo, ICR mice. To be noted: mouse, in vivo.
Data set [7] deals with tetanus toxoid. Conditions: mouse, in vivo, sc.
Data set [8] deals with TNF-α. The experiment in a line: Cytokine induction in human whole blood ex vivo culture: TNF-α (ELISA). The class given is cell-based. To be noted: 4 hr, Table 19. On the procedure: (§1) AGP compounds were solubilized in 10% EtOH-water and diluted to various concentrations. Fifty μl of each dilution were added to 450 μl of whole human blood. Controls were treated with culture media (RPMI). The reaction mixture was incubated at 37° C. for 4 hr with constant mixing on a rotator. Sterile PBS (1.5 ml) was added to the reaction mixture, the cells were centrifuged and the supernatents removed for cytokine testing. The concentration of TNF-α and IL-1β in each supernatent was determined using immunoassay ELISA kits from R&D Systems.
On the technique in general: An ELISA detects its analyte on a solid surface through an enzyme-linked reagent.

The subject of data set [9] is IL-1β. The experiment in a line: Cytokine induction in human whole blood ex vivo culture: IL-1β (ELISA). The class given is cell-based. To be noted: 4 hr, Table 19. On the procedure: as §1
Where [10] appears, read: 25 μg AGP + 1 HAU FI-Flu in 2% Squalene, SQ once, bled 14 days after vaccination.

Where two headings read alike, the source gives them in different places.

With “3-Hydroxy-(R)-2-[(R)-3-tetradecanoyloxytetradecanoylamino]propyl 2-Deoxy-4-O-phosphono-2-[(R)-3-tetradecanoyloxytetradecanoylamino]-3-O-[(R)-3-tetradecanoyloxytetradecanoyl]-β-D-glucopyranoside Triethylammonium Salt [B2]”, in data set [1], the “PYROGENICITY Total Rise ° C., 3 rabbits” value stood at 3.6 °C and the “PY[…]” value lay within 2.5 to 5 µg/kg. Further, the “% Cytotoxicity” value in [2] (E:T 12.5:1) came to 6%. Also, in [2] (E:T 25:1), the “% Cytotoxicity” value worked out at 12%. Further, the “% Cytotoxicity” value in [2] (E:T 50:1) came out at 21%. Further, in data set [3], the “Anti-ovalbumin IgG1 T/C” value is listed as 5.0, the “Anti-ovalbumin IgG1 Titer” value is listed as 8300, the “Anti-ovalbumin IgG2a T/C” value came to 2.5 and the “Anti-ovalbumin IgG2a Titer” value is 825. Further, in data set [3], the “Anti-ovalbumin IgG2b T/C” value is recorded as 2.3, the “Anti-ovalbumin IgG2b Titer” value came out at 550, the “Anti-ovalbumin IgM T/C” value is listed as 0.9 and the “Anti-ovalbumin IgM Titer” value is 175. Also, in [3], the “Anti-ovalbumin Total Ig T/C” value turned out to be 2.5 and the “Anti-ovalbumin Total Ig Titer” value was determined as 563.

As to “3-Hydroxy-(S)-2-[(R)-3-decanoyloxytetradecanoylamino]propyl 2-Deoxy-6-O-phosphono-2-[(R)-3-decanoyloxytetradecanoylamino]-3-O-[(R)-3-decanoyloxytetradecanoyl]-β-D-glucopyranoside Triethylammonium Salt [B6]”, in [4] (mouse, in vivo), the “Anti-influenza Titer^−1 IgG1” value is recorded as 800, the “Anti-influenza Titer^−1 IgG2a” value is given as 400, the “Anti-influenza Titer^−1 IgG2b” value is 1600 and the “Anti-influenza Titer^−1 Total IgG” value is listed as 800. The “Percent Survival” value in [4] (mouse, in vivo) was found to be 75%. In addition, in data set [5], the “IgG Titer-1 post 1°” value is reported as 1600, the “IgG Titer-1 post 2°” value is 102,400, the “Percent Survival post 1°” value turned out to be 80% and the “Percent Survival post 2°” value worked out at 70%. In addition, in [2] (E:T 12.5:1), the “% Cytotoxicity” value turned out to be 37%. Further, the “% Cytotoxicity” value in [2] (E:T 25:1) was 41%. Besides, the “% Cytotoxicity” value in data set [2] (E:T 50:1) is 54%.

On to “3-Hydroxy-(S)-2-[(R)-3-tetradecanoyloxytetradecanoylamino]propyl 2-Deoxy-4-O-phosphono-2-[(R)-3-tetradecanoyloxytetradecanoylamino]-3-O-[(R)-3-tetradecanoyloxytetradecanoyl]-β-D-glucopyranoside Triethylammonium Salt [B1]”, for which the “PYROGENICITY Total Rise ° C., 3 rabbits” value in data set [1] came out at 0.1 °C. Also, in data set [6], the “Percent Survival” value was found to be 40%, the “Titer−1 IgG1” value came out at 6400, the “Titer−1 IgG2a” value amounted to 1600 and the “Titer−1 IgG2b” value was 15600. In addition, the “Titer−1 Total IgG” value in data set [6] is recorded as 12,800. In addition, in data set [2] (E:T 12.5:1), the “% Cytotoxicity” value is on record as 15%. Also, the “% Cytotoxicity” value in [2] (E:T 25:1) was determined as 24%. Also, the “% Cytotoxicity” value in data set [2] (E:T 50:1) is 34%. For the same molecule, in [3], the “Anti-ovalbumin IgG1 T/C” value stood at 0.5, the “Anti-ovalbumin IgG1 Titer” value is 763, the “Anti-ovalbumin IgG2a T/C” value was 0.2 and the “Anti-ovalbumin IgG2a Titer” value was 56. Also, in data set [3], the “Anti-ovalbumin IgG2b T/C” value is given as 0.8, the “Anti-ovalbumin IgG2b Titer” value came to 188, the “Anti-ovalbumin IgM T/C” value came out at 0.8 and the “Anti-ovalbumin IgM Titer” value amounted to 150. In addition, in [3], the “Anti-ovalbumin Total Ig T/C” value came out at 0.5 and the “Anti-ovalbumin Total Ig Titer” value stood at 119.

For `CCCCCCCCCCCCCC(=O)OC(CCCCCCCCCCC)CC(=O)NC(COC1OC(CO)C(OP(=O)(O)O)C(OC(=O)CC(CCCCCCCCCCC)OC(=O)CCCCCCCCCCCCC)C1NC(=O)CC(CCCCCCCCCCC)OC(=O)CCCCCCCCCCCCC)C(N)=O.CCN(CC)CC` [B24, N-[(R)-3-Tetradecanoyloxytetradecanoyl]-O-phosphono-2-[(R)-3-tetradecanoyloxytetradecanoylamino]-3-O-[(R)-3-tetradecanoyloxytetradecanoyl]β-D-glucopyranosyl]-L-serinamide Triethylammonium Salt], in data set [1], the “PYROGENICITY Total Rise ° C., 3 rabbits” value amounted to 2.4 °C and the “PY[…]” value was in the range of 2.5 to 5 µg/kg.

For `CCCCCCCCCCC[C@H](CC(=O)N[C@H]1[C@H](OCCCN(CC(=O)O)C(=O)C[C@@H](CCCCCCCCCCC)OC(=O)CCCCCCCCC)O[C@H](CO)[C@@H](OP(=O)(O)O)[C@@H]1OC(=O)C[C@@H](CCCCCCCCCCC)OC(=O)CCCCCCCCC)OC(=O)CCCCCCCCC.CCN(CC)CC` [B28], the “Percent Survival” value in data set [4] (25 μg AGP + 1 HAU FI-Flu in 2% Squalene, SQ once, […], mortality 21 days) amounted to 50%. Moreover, in data set [4] (setting [10]), the “Anti-influenza Titer^−1 IgG1” value turned out to be 400, the “Anti-influenza Titer^−1 IgG2a” value stood at 400, the “Anti-influenza Titer^−1 IgG2b” value came to 100 and the “Anti-influenza Titer^−1 Total IgG” value is given as 800. Also, in [7], the “Anti-tetanus toxoid IgG1 T/C” value is reported as 92.5, the “Anti-tetanus toxoid IgG1 Titer” value is listed as 137,600, the “Anti-tetanus toxoid IgG2a T/C” value is 664.7 and the “Anti-tetanus toxoid IgG2a Titer” value is 9,970. In data set [7], the “Anti-tetanus toxoid IgG2b T/C” value was found to be 519.2, the “Anti-tetanus toxoid IgG2b Titer” value is 27,520, the “Anti-tetanus toxoid IgM T/C” value is on record as 3.7 and the “Anti-tetanus toxoid IgM Titer” value is on record as 2,080. In [7], the “Anti-tetanus toxoid Total Ig T/C” value is 228.6 and the “Anti-tetanus toxoid Total Ig Titer” value is reported as 54,500. In addition, the “% Cytotoxicity” value in [2] (E:T 12.5:1) was found to be 9%. In addition, in data set [2] (E:T 25:1), the “% Cytotoxicity” value is listed as 15%. Moreover, the “% Cytotoxicity” value in [2] (E:T 50:1) came to 28%. The TNF-α in data set [8] (Dosage 1000 ng/ml) stood at 139 pg/mL. Besides, in data set [8] (Dosage 5000 ng/ml), the TNF-α amounted to 197 pg/mL. In data set [8] (Dosage 10,000 ng/ml), this molecule registered a TNF-α of 198 pg/mL. The same molecule gave an IL-1β in [9] (Dosage 1000 ng/ml) of 8 pg/mL. The molecule further returned an IL-1β in data set [9] (Dosage 5000 ng/ml) of 13 pg/mL. Moreover, the IL-1β in data set [9] (Dosage 10,000 ng/ml) worked out at 13 pg/mL.

With “N-[(R)-3-Hexanoyloxytetradecanoyl]-O-[2-deoxy-4-O-phosphono-2-[(R)-3-hexanoyloxytetradecanoylamino]-3-O-[(R)-3-hexanoyloxytetradecanoyl]-α-d-glucopyranosyl]-l-serinamide Triethylammonium Salt [B29]”, the “PYROGENICITY Total Rise ° C., 3 rabbits” value in data set [1] was found to be 0.7 °C. Further, the results for the “% Cytotoxicity” value in [2] (E:T 12.5:1), in data set [2] (E:T 25:1) and in data set [2] (E:T 50:1) were 5%, 9% and 16%, respectively.

(Values after patent US7541020B2, “Aminoalkyl glucosaminide phosphate compounds and their use as adjuvants and immunoeffectors” (priority 1997, dated 2009).)
